How the values were obtained:
[1] = Electrostatic charge measurement with Faraday cage apparatus; format: physicochemical; settings: for Electrostatic charge of active agent, Approx. Magnitude: exemplary active agent of the charge range
Description: Determination of the electrostatic charge of the SAE-CD-containing carrier and the active agent-containing composition.
Electrostatic charge measurements were performed using a Faraday Cage apparatus that determines the potential difference changes as a function of time during powder flow onto a conducting surface. Samples were weighed and transferred from original containers to wax coated weighing papers. These were mounted to a vibrating spatula (set at maximum vibration level). The angle of the spatula was set at a constant angle (30 degrees). Powder was dispensed to the Faraday cage that was connected to a electrometer. Data collection was performed using Windaq interface and a PC computer sampling at 240 Hz. The area under the electrostatic dissipation curve was determined (Voltage×time) and charge (nC/g) was calculated from the known resistance of the setup.

healthy volunteers = settings: nasal spray in aqueous sulfobutylether-beta-cyclodextrin buffer solution; cited from earlier work
rats = settings: inhaled aerosol composition, SBE-CD present alone; cited from earlier work

Molecule	Polarity and magnitude of electrostatic charge (in words) [1]	Electrostatic charge of active agent, Approx. Magnitude [1] [nC/g]	Side effects (healthy volunteers)	Toxicity (rats)	Electrostatic charge ([1]; micronized for inhalation) [nC/g]
CC(C)(C)NCC(O)c1ccc(O)c(CO)c1 (stereo not drawn) [Albuterol, alpha^1-(((1,1-dimethylethyl)amino)methyl)-4-hydroxy-1,3-benzenedimethanol]	high positive charge	>4			
Cc1ncc2n1-c1ccc(Cl)cc1C(c1ccccc1F)=NC2 [midazolam]			No serious side effects		
sulfobutyl ether derivative of beta cyclodextrin [SBE-CD]				non-toxic	
O=C(O)c1cc(=O)c2c(OCC(O)COc3cccc4oc(C(=O)O)cc(=O)c34)cccc2o1 [Na Cromolyn, sodium cromolyn]	electroneutral	−2 to −0.5			−1 to −1.7

From patent publication US10117940B2, “DPI formulation containing sulfoalkyl ether cyclodextrin” (CyDex Pharmaceuticals, Inc., priority 2004, dated 2018)
